For two molecules, FICI results are on record in patent US7521418B2, “Use of a polyene macrolide antifungal agent in combination with a glycopeptide antibacterial agent” (Theravance, Inc., priority 2003, dated 2009).

This experiment deals with P. boydii ATCC 38283. The experiment can be described thus: Checkerboard MIC assay, FICI. Particulars: combination with Compound 1. It counts as cell-based, Pseudallescheria boydii. An excerpt:
The following assay was used to determine the minimum inhibitory concentration (MIC) and fractional inhibitory concentration index (FICI) for combinations of an antifungal agent and a glycopeptide antibacterial agent. This assay and methods for calculating FICI are well known in the art. See, for example, Eliopoulos, E. G. and R. Moellering, Jr. “Antimicrobial Combinations” in Antibiotics in Laboratory Medicine, edited by V. Lorian, 4th Ed., Williams & Wilkins, Baltimore, MD, pp. 330-396 (1996); […] et al., Antimicrobial Agents and Chemotherapy 47(4):1416-1418 (2003); or […] et al., Antimicrobial Agents and Chemotherapy 46(10):3323-3326 (2002). […] The MIC of the glycopeptide antibacterial agent determined from this experiment was used in FIC calculations. […]

Turning to `C[C@@H]1[C@H](O)[C@@H](C)/C=C/C=C/C=C/C=C/C=C/C=C/C=C/[C@H](O[C@@H]2O[C@H](C)[C@@H](O)[C@H](N)[C@@H]2O)C[C@@H]2O[C@](O)(C[C@@H](O)C[C@@H](O)[C@H](O)CC[C@@H](O)C[C@@H](O)CC(=O)O[C@H]1C)C[C@H](O)[C@H]2C(=O)O` [Amphotericin B], the FICI was found to be 0.38.

As for `C[C@@H]1[C@H](O)[C@@H](C)/C=C/C=C/CC/C=C/C=C/C=C/C=C/C(O[C@H]2O[C@H](C)[C@@H](O)[C@H](N)[C@@H]2O)CC2O[C@](O)(CC(O)C(O)CCC(O)CC(O)CC(O)CC(=O)O[C@H]1C)CC(O)C2C(=O)O` (some centres unmarked) [Nystatin], the FICI is 0.38.
